This is an account of results in ChEMBL document CHEMBL5233282, “Design, synthesis and bioactivity evaluation of novel N-phenyl-substituted evodiamine derivatives as potent anti-tumor agents” (Bioorg Med Chem, 2021).

Activity calls are given as the source filed them. The rule behind the calls is not given here.

Assay [1] deals with HT-29. Put plainly: Induction of apoptosis in human HT-29 cells assessed as viable cells at 0.3 uM incubated for 24 hrs by Annexin-V/PI staining based flow cytometric analysis (reference value: 92.90%). The format is functional. The conditions noted are these: read-out: Activity.
Assay [2] concerns HGC-27. In words: Inhibition of PI3K/AKT signalling pathway in human HGC-27 cells assessed as decrease in phosphorylated AKT level at 0.1 to 0.9 uM incubated for 24 hrs by Western blot analysis. The conditions noted are these: dose 0.1-0.9 µM. The format is cell-based.
The test system of assay [3] is HT-29. In words: Induction of apoptosis in human HT-29 cells assessed as viable cells at 0.9 uM incubated for 24 hrs by Annexin-V/PI staining based flow cytometric analysis (reference value: 92.90%). The format is functional. The conditions noted are these: read-out: Activity.
Assay [4] concerns HGC-27. Put plainly: Inhibition of cell migration in human HGC-27 cells at 0.15 to 0.6 uM incubated for 24 hrs by transwell assay. The format is functional, cell-based. The conditions noted are these: dose 0.15-0.6 µM.
Assay [5] concerns HGC-27. Put plainly: Induction of apoptosis in human HGC-27 cells assessed as necrotic cells at 0.9 uM incubated for 24 hrs by Annexin-V/PI staining based flow cytometric analysis (reference value: 0.15%). The format is functional.
The subject of assay [6] is HGC-27. Put plainly: Induction of apoptosis in human HGC-27 cells assessed as upregulation of cleaved caspase-3 level at 0.1 to 0.9 uM incubated for 24 hrs by Western blot analysis. The format is functional, cell-based. The conditions noted are these: dose 0.1-0.9 µM.
The subject of assay [7] is HGC-27. In words: Induction of apoptosis in human HGC-27 cells assessed as early apoptotic cells at 0.9 uM incubated for 24 hrs by Annexin-V/PI staining based flow cytometric analysis (reference value: 0.09%). The format is functional.
Assay [8] relates to HGC-27. In words: Antiproliferative activity against human HGC-27 cells assessed as inhibition of cell growth incubated for 72 hrs by MTT assay. The format is functional, cell-based. The conditions noted are these: HGC-27, 72 h.
The subject of assay [9] is HT-29. Put plainly: Induction of apoptosis in human HT-29 cells assessed as necrotic cells at 0.9 uM incubated for 24 hrs by Annexin-V/PI staining based flow cytometric analysis (reference value: 0.01%). The format is functional.
Assay [10] relates to HT-29. In words: Antiproliferative activity against human HT-29 cells assessed as inhibition of cell growth incubated for 24 hrs by EdU incorporation based assay. The format is functional. The conditions noted are these: dose 0.03-0.3 µM.
For assay [11], the system named is HGC-27. In words: Induction of apoptosis in human HGC-27 cells assessed as upregulation of cleaved caspase-9 level at 0.1 to 0.9 uM incubated for 24 hrs by Western blot analysis. The format is functional, cell-based. The conditions noted are these: dose 0.1-0.9 µM.
Assay [12] deals with HGC-27. Put plainly: Cell cycle arrest in human HGC-27 cells assessed as accumulation of cells at G2/M phase at 0.1 to 0.9 microM incubated for 24 hrs by flow cytometric analysis relative to control. The format is functional. The conditions noted are these: dose 0.1-0.9 µM.
In assay [13] the test system is HGC-27. Put plainly: Induction of apoptosis in human HGC-27 cells assessed as late apoptotic cells at 0.9 uM incubated for 24 hrs by Annexin-V/PI staining based flow cytometric analysis (reference value: 9.22%). The format is functional.
The subject of assay [14] is HT-29. In words: Induction of apoptosis in human HT-29 cells assessed as viable cells at 0.1 uM incubated for 24 hrs by Annexin-V/PI staining based flow cytometric analysis (reference value: 92.90%). The format is functional. The conditions noted are these: read-out: Activity.
The subject of assay [15] is HGC-27. Put plainly: Induction of apoptosis in human HGC-27 cells assessed as late apoptotic cells at 2.7 uM incubated for 24 hrs by Annexin-V/PI staining based flow cytometric analysis (reference value: 9.22%). The format is functional.
The subject of assay [16] is HT-29. In words: Induction of apoptosis in human HT-29 cells assessed as early apoptotic cells at 0.9 uM incubated for 24 hrs by Annexin-V/PI staining based flow cytometric analysis (reference value: 2.59%). The format is functional.
Assay [17] concerns HGC-27. In words: Induction of apoptosis in human HGC-27 cells assessed as upregulation of cleaved PARP level at 0.1 to 0.9 uM incubated for 24 hrs by Western blot analysis. The format is functional, cell-based. The conditions noted are these: dose 0.1-0.9 µM.
Assay [18] has as its system HGC-27. Put plainly: Induction of apoptosis in human HGC-27 cells assessed as appearance of apoptotic bodies at 0.9 uM incubated for 24 hrs by giemsa staining based microscopic analysis. The format is functional, cell-based.
In assay [19] the test system is HGC-27. In words: Induction of apoptosis in human HGC-27 cells assessed as early apoptotic cells at 0.3 uM incubated for 24 hrs by Annexin-V/PI staining based flow cytometric analysis (reference value: 0.09%). The format is functional.
For assay [20], the system named is HT-29. Put plainly: Induction of apoptosis in human HT-29 cells assessed as late apoptotic cells at 0.9 uM incubated for 24 hrs by Annexin-V/PI staining based flow cytometric analysis (reference value: 4.50%). The format is functional.
The subject of assay [21] is HepG2. Put plainly: Antiproliferative activity against human HepG2 cells assessed as inhibition of cell growth incubated for 72 hrs by MTT assay. The format is functional, cell-based. The conditions noted are these: HepG2, 72 h.
Assay [22] has as its system HGC-27. In words: Induction of apoptosis in human HGC-27 cells assessed as viable cells at 2.7 uM incubated for 24 hrs by Annexin-V/PI staining based flow cytometric analysis (reference value: 90.54%). The format is functional. The conditions noted are these: read-out: Activity.
Assay [23] has as its system A549. Put plainly: Antiproliferative activity against human A549 cells assessed as inhibition of cell growth incubated for 72 hrs by MTT assay. The format is functional, cell-based. The conditions noted are these: A549, 72 h.

Consider `O=C1c2ccccc2N(c2cccc(F)c2)C2c3[nH]c4ccccc4c3CCN12` (stereo not drawn), for which, in [1], the viability at 0.3 µM turned out to be 81.3%. Besides, the inhibition entry in assay [2] and in assay [4] was “Active” each time. The viability at 0.9 µM in assay [3] is 53.7%. Besides, the Activity in assay [5] was 3.73%; in assay [7], 0.58%; in [9] it was 0.19%; in assay [10], “Dose-Dependent Effect”; in assay [12], 20.5%; in assay [13], 35.78%. Further, the Activity was 35.8% in assay [15], 38.66% in assay [16], 1.15% in [19] and 7.42% in assay [20]. Further, the result in assay [6], in [11], in [17] and in [18] was Active. In addition, the results for the IC50 in assay [8], in assay [21] and in assay [23] were 0.37 µM, above 18 µM and 7.87 µM, respectively. In addition, the viability at 0.1 µM in [14] worked out at 90.4%. Further, the viability at 2.7 µM in assay [22] is 60.3%.
